Experimental data from patent US10435375B2, “CXCR4 chemokine receptor modulators” (NORTHWESTERN UNIVERSITY, priority 2015, dated 2019).
Entries after “also recorded” stand apart in the source; their conditions may differ.

Key:
CXCR4 [1] = target: T1, CXCR4 (Homo sapiens, UniProt P61073); test: Calcium imaging ((Ca)i mobilization) assay, fura-2, C8161 melanoma cells; type: cell-based; parameters: human melanoma cell line C8161 was initially used, which expresses numerous human CXCR4 receptors; endogenous in cells; host or cells: C8161 human melanoma cells; conditions: for effect on SDF-1-induced (Ca)i response: test compounds 10 μM; for Pharmacology: Table 2, agonist or antagonist; for IC50: multiple concentrations, dose-response, read-out: estimated IC50 (antagonism of SDF-1 (Ca)i response); for Ca^2+ Assay: Table 1, calcium imaging behavior; for compound's (Ca)i response in presence of CXCR4 antagonist AMD3100: AMD3100 1 μM where stated; for own (Ca)i response (agonist effect): compounds 10 μM where stated, SDF-1 100 nM
T1 sequence (P61073 whole entry): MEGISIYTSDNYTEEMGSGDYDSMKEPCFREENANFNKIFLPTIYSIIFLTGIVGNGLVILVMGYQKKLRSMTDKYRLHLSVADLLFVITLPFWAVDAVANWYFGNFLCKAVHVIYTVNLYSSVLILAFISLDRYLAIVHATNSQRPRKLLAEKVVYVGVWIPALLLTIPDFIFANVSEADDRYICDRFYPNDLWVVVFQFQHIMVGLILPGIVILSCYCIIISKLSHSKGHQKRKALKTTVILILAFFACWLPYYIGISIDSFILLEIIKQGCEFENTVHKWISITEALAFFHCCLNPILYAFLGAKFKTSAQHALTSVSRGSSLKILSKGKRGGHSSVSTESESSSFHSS
Excerpt: The initial assay for examining the activity of different molecules was based on the fact that activation of CXCR4 receptors produces an increase in the intracellular free Ca^2+ concentration (Ca)i. This signal can easily be observed using a fluorescent Ca^2+ sensing dye such as fura-2. The quantitative nature of this assay makes it ideal for screening purposes. Moreover, the assay can also distinguish potential antagonists from potential agonists. The aggressive human melanoma cell line C8161 was initially used, which expresses numerous human CXCR4 receptors and produces strong (Ca)I signals when stimulated with SDF-1 (FIG. 3). In the assay, cells were usually stimulated twice with SDF-1. […] To test a drug, the compound in question was usually added prior to the second stimulation with SDF-1. At this point it was possible to observe whether the compound itself acted as an agonist by giving its own response or if it reduced the magnitude of the second response to SDF-1. […] Each of the four antagonists were then assayed at multiple concentrations to obtain a dose-response relationship and an estimated IC50. Antagonists NUCC-388, 397, 392, and 51420 had IC50 values of 0.3 μM, 3 μM, 1 μM, and 1 μM respectively.

CXCR4-YFP = target: T2, CXCR4-YFP (Homo sapiens, UniProt P61073); test: Internalization of YFP-tagged CXCR4 receptors in HEK293 cells; type: cell-based; conditions: for inhibition of NUCC-390-induced CXCR4-YFP internalization: AMD3100 1 μM; for CXCR4-YFP receptor internalization: 2 hours, SDF-1 100 nM, NUCC-390 10 μM
T2 construct: expressed in transfected cells; host or cells: HEK293 cells
T2 sequence (P61073 whole entry): as above

U937 cells = test: Cell viability assay, U937 cells, with Ara-C; type: cell-based
Experimental: FIG. 20. Cell viability assay with agonist NUCC-390 and known chemotherapeutics. The first bar is viability no NUCC-390 or Ara-C. Otherwise, the concentration of NUCC-390 was maintained at 50 μM in all experiments. U937 cells were treated with NUCC-390 and the indicated concentration of Ara-C.

CXCR4 [2] = target: T1, CXCR4; test: ERK activation (pERK, Western blot) in C8161 cells; type: cell-based; parameters: human melanoma cell line C8161 was initially used, which expresses numerous human CXCR4 receptors; endogenous in cells; host or cells: C8161 human melanoma cells; conditions: SDF-1 100 nM, NUCC-390 10 μM, 30 min
Excerpt: To further explore the agonist potential of compound NUCC-390, changes in signaling downstream of CXCR4 were examined. For these experiments, lysates were collected from treated C8161 cells and analyzed them using Western blot. […] That drug NUCC-390 has the capability of stimulating signaling activity downstream of CXCR4 receptors further supports the observation that NUCC-390 acts as a CXCR4 agonist.

C8161 cells = test: Chemotaxis of C8161 cells, Boyden chamber assay; type: cell-based, human; conditions: SDF-1 100 nM, NUCC-390 10 μM, p<0.01, n=6
Excerpt: Chemokines are well known for their ability to stimulate chemotaxis of leukocytes and stem cells. In order to further establish the biological activity of the CXCR4 agonists, the ability of SDF-1 and NUCC-390 to produce chemotaxis of C8161 cells was compared using a Boyden chamber assay.

CXCR4 [3] = target: T1, CXCR4; test: (Ca)i mobilization assay using CXCR4 expressing U87 cells; type: cell-based; parameters: host or cells: U87 glioblastoma cells
[4] = C8161 cells, listed as NUCC-390
[5] = C8161 cells, listed as NUCC-398

Row | Molecule | effect on SDF-1-induced (Ca)i response (CXCR4 [1]; C8161 cells) | Pharmacology (CXCR4 [1]) | Ca^2+ Assay (CXCR4 [1]) | own (Ca)i response (agonist effect) (CXCR4 [1]; C8161 cells) | also measured
1 | c1cc(CN2CCCNCCNCCCNCC2)ccc1CN1CCCNCCNCCCNCC1 [AMD3100, reference compound] | completely blocked stimulation with SDF-1; also recorded: blocked the effects of SDF-1 | – | – | – | inhibition of NUCC-390-induced CXCR4-YFP internalization (CXCR4-YFP): blocks internalization; inhibition of NUCC-390-induced CXCR4-YFP internalization (CXCR4-YFP; listed as AMD-3100): completely inhibited
2 | Cc1ncsc1CCn1nc(C(=O)NC2CC2)c2c1CCN(Cc1ccc3c(c1)OCO3)C2 [NUCC-0000387] | – | Agonist | – | – | –
3 | CN(C)CCNC1CCc2c(c(C(=O)N(C)Cc3ccccc3)nn2C)C1 (stereo not drawn) [NUCC-0000388] | – | Antagonist | Antagonist | – | inhibition of NUCC-390-induced (Ca)i response (CXCR4 [1]; C8161 cells): inhibited; IC50 (CXCR4 [1]; C8161 cells): 0.3 µM; effect on SDF-1-induced (Ca)i response (CXCR4 [1]; C8161 cells, listed as NUCC-388): antagonized the effects of SDF-1; also recorded: blocks the effect of SDF-1; also recorded: completely inhibited the second addition of SDF-1; inhibition of NUCC-390-induced CXCR4-YFP internalization (CXCR4-YFP): completely inhibited
4 | CCCn1nc(C(=O)N2CCCCC2)c2c1CCC(NCCc1ccncc1)C2 (stereo not drawn) [NUCC-0000390, Piperidin-1-yl(1-propyl-5-((2-(pyridin-4-yl)ethyl)amino)-4,5,6,7-tetrahydro-1H-indazol-3-yl)methanone] | – | Agonist | Agonist | – | compound's (Ca)i response in presence of CXCR4 antagonist AMD3100 (CXCR4 [1]; [4]): completely inhibited; also recorded: completely blocked by AMD3100; own (Ca)i response (agonist effect) (CXCR4 [1]; [4]): produced their own response; also recorded: effects were similar to those produced by SDF-1; also recorded: strong (Ca)i response; also recorded: produced agonist effects; effect on cell viability, compound alone (U937 cells; NUCC-390 50 μM): only a modest effect by itself; effect on cytotoxicity of Ara-C in combination (U937 cells; NUCC-390 50 μM plus Ara-C): significantly increased the cytotoxicity of Ara-C; level of phosphorylated ERK (pERK) (CXCR4 [2]): increased levels of pERK; also recorded: Increase in pERK; chemotaxis (C8161 cells): matched by the effects of NUCC-390; CXCR4-YFP receptor internalization (CXCR4-YFP): causes most of the CXCR4 receptor to become internalized
5 | COC(=O)c1c(NC(=O)C2CCOC2)c2cc(NCC(C)Cc3ccc4c(c3)OCO4)cnc2n1CCCc1ccccc1 (stereo not drawn) [NUCC-0000392] | antagonized the effects of SDF-1 | Antagonist | – | – | IC50 (CXCR4 [1]; C8161 cells): 1 µM
6 | COC(=O)c1c(NC(=O)[C@H]2CCOC2)c2cc(NC[C@H](C)Cc3ccc4c(c3)OCO4)cnc2n1CCCc1ccccc1 [NUCC-0000392] | – | – | Antagonist | – | –
7 | COCCn1c(C(=O)OC)c(NC(=O)CCc2ccccc2)c2cc(NCCC(C)c3ccccc3)cnc21 (stereo not drawn) [NUCC-0000393] | – | Agonist | – | – | –
8 | COCCNC(=O)c1nn(CCC(C)C)c2c1CN(Cc1ncc[nH]1)CC2 [NUCC-0000398, 5-((1H-imidazol-2-yl)methyl)-1-isopentyl-N-(2-methoxyethyl)-4,5,6,7-tetrahydro-1H-pyrazolo(4,3-c)pyridine-3-carboxamide] | – | Agonist | Agonist | – | compound's (Ca)i response in presence of CXCR4 antagonist AMD3100 (CXCR4 [1]; [5]): completely inhibited; also recorded: inhibited by AMD3100; own (Ca)i response (agonist effect) (CXCR4 [1]; [5]): produced their own response; also recorded: robust agonist activity; also recorded: Agonist effects
9 | CCCn1nc(C(=O)N2CCCCC2)c2c1CCC(NCCc1cccnc1)C2 (stereo not drawn) [NUCC-0054118, Piperidin-1-yl(1-propyl-5-((2-(pyridin-3-yl)ethyl)amino)-4,5,6,7-tetrahydro-1H-indazol-3-yl)methanone] | – | Agonist | Antagonist | robust agonist activity | compound's (Ca)i response in presence of CXCR4 antagonist AMD3100 (CXCR4 [1]; C8161 cells): inhibited by AMD3100
10 | CCCn1nc(C(=O)N2CCCCC2)c2c1CCC(NCCCN1CCCC1=O)C2 (stereo not drawn) [NUCC-0054120, 1-(3-((3-(Piperidine-1-carbonyl)-1-propyl-4,5,6,7-tetrahydro-1H-indazol-5-yl)amino)propyl)pyrrolidin-2-one] | antagonized the effects of SDF-1 | Antagonist | Agonist | – | IC50 (CXCR4 [1]; C8161 cells): 1 µM
11 | CCCn1nc(C(=O)N2CCCCC2)c2c1CCC(NCCCN1CCOCC1)C2 (stereo not drawn) [NUCC-0054127] | – | Agonist | Agonist | robust agonist activity | compound's (Ca)i response in presence of CXCR4 antagonist AMD3100 (CXCR4 [1]; C8161 cells): inhibited by AMD3100
12 | Cn1nc(C(=O)N2CCCCC2)c2c1CCC(NCCCN1CCOCC1)C2 (stereo not drawn) [NUCC-0176288] | blocks the effect of SDF-1 | Antagonist | – | – | own (Ca)i response (agonist effect) (CXCR4 [3]): robust calcium response
13 | Cn1nc(C(=O)N2CCCCC2)c2c1CCC(NCc1ccc(F)cc1)C2 (stereo not drawn) [NUCC-0176290] | blocks the effect of SDF-1 | Antagonist | – | robust calcium response | –
14 | CCCn1nc(C(=O)N(C)Cc2ccccc2)c2c1CCC(NCCc1ccncc1)C2 (stereo not drawn) [NUCC-0176299] | blocks the effect of SDF-1 | Antagonist | – | – | own (Ca)i response (agonist effect) (CXCR4 [3]): robust calcium response
15 | CCCn1nc(C(=O)N(C)Cc2ccccc2)c2c1CCC(NCCCN1CCOCC1)C2 (stereo not drawn) [NUCC-0176301] | – | Agonist | – | robust calcium response | compound's (Ca)i response in presence of CXCR4 antagonist AMD3100 (CXCR4 [1]; C8161 cells): prevented calcium signaling
16 | CCCn1nc(C(=O)N(C)Cc2ccccc2)c2c1CCC(NCc1ccc(F)cc1)C2 (stereo not drawn) [NUCC-0176303] | – | Agonist | – | robust calcium response | –
17 | CCCn1nc(C(=O)N2CCCCC2)c2c1CCC(NCc1ccc(F)cc1)C2 (stereo not drawn) [NUCC-0176306] | – | Agonist | – | robust calcium response | compound's (Ca)i response in presence of CXCR4 antagonist AMD3100 (CXCR4 [1]; C8161 cells): prevented calcium signaling
18 | CCCn1nc(C(=O)N(C)C)c2c1CCC(NCCc1cccnc1)C2 (stereo not drawn) [NUCC-0176308] | – | Agonist | – | robust calcium response | compound's (Ca)i response in presence of CXCR4 antagonist AMD3100 (CXCR4 [1]; C8161 cells): prevented calcium signaling
19 | CCCn1nc(C(=O)N(C)C)c2c1CCC(NCCCN1CCCC1=O)C2 (stereo not drawn) [NUCC-0176311] | – | Agonist | – | robust calcium response | –
20 | SDF-1: cognate agonist for CXCR4, the 93 amino acid protein CXCL12 (SDF-1) | – | – | – | two strong (Ca)i responses | level of phosphorylated ERK (pERK) (CXCR4 [2]): increased levels of phosphorylated ERK; also recorded: Increase in pERK; chemotaxis (C8161 cells): robust chemotactic activity; CXCR4-YFP receptor internalization (CXCR4-YFP): pronounced internalization of CXCR4-YFP; also recorded: causes most of the CXCR4 receptor to become internalized
